The test relates to blood clots. The test is described as follows: in vitro clot lysis assay (release of solubilized 125I-fibrin-derived fragments, lysis initiated by TPA). Here is the method:
In the assay, whole blood or plasma is charged with ^125 I-fibrinogen. Thrombin is added to initiate clot formation and subsequently incubated for 2 hours to complete the cross-linking by endogenous Factor XIII. Factor XIIIa inhibitor is added prior to clot initiation or at various times during the 2-hour incubation. At the end of this period, the labelled clot is washed and lysis is initiated by exogenous tissue plasminogen activator (TPA). Exogenous plasminogen is employed in some experiments. Endogenous plasminogen is used for others. Clot dissolution as a function of time is monitored by the release of solubilized ^125 I-fibrin-derived fragments.
In FIGS. 1 and 2, the open symbols indicate absence of cerulenin and the closed symbols indicate the presence of 200 μM cerulenin at the time of clot formation. Clot lysis is conducted in buffer, pH 7.5; 5 ng/mL TPA represents approximate physiologic concentration. 50 to […] represents pharmacologic concentration range. […] FIG. 2 studies employed glu-plasminogen levels at approximately 10 percent physiologic level (12 μ/mL).

The values below come from US5188830A, “Methods for thrombolytic therapy” (Merck & Co., Inc., priority 1990, dated 1993).

For `C/C=C/C/C=C/CCC(=O)[C@H]1O[C@H]1C(N)=O` [Cerulenin, 3-(1-oxo-4,7-nonadienyl)-oxiranecarboxamide], the “rates and extents of clot lysis” value (200 μM cerulenin at clot formation, no exogenous plasminogen, TPA at physiological and pharmacological levels, buffer pH 7.5 (FIG. 1)) was “enhanced rates and extents of lysis”. In addition, the “rate of TPA catalyzed clot lysis” value (200 μM cerulenin, 12 μg/mL exogenous glu-plasminogen, TPA, buffer pH 7.5 (FIG. 2)) is reported as “lysis rates were further enhanced”.
